Where two headings read alike, the source gives them in different places.
Experiments:
Kir4.1 = target: T1, Kir4.1 (Homo sapiens, UniProt P78508); assay: Whole-cell patch clamp, Kir4.1 currents in transfected CHO-K1 cells; assay type: cell-based; settings: for inhibition at 10 µM: CHO-K1, 10 μM; for inhibition at 1 µM: CHO-K1, 1 μM; for inhibition at 0.5 µM: CHO-K1, 0.5 μM
T1 construct: host or cells: CHO-K1
T1 sequence (P78508 1-379): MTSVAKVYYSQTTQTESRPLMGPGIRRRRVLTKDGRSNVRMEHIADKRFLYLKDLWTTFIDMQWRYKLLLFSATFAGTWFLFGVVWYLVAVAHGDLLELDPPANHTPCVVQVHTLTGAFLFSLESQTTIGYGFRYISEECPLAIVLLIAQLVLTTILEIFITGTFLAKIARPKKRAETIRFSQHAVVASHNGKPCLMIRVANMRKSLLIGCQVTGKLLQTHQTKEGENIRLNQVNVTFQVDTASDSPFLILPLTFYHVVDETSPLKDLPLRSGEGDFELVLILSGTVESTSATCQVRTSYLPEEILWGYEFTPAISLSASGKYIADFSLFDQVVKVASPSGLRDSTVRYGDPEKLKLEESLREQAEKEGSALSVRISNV
Protocol: Plasmids encoding WT human potassium channels Kir1.1, Kir2.1, Kir2.2, Kir4.1, and Kir4.2 were obtained from the Beijing Genomics Institute. All point mutations were constructed using the QuickChange II Site‐Directed Mutagenesis Kit (Stratagene) and subsequently verified by sequencing.
CHO‐K1 cells were maintained in DMEM/F12 growth medium containing 10% fetal bovine serum. Plasmids encoding the target genes (3600 ng) and enhanced green fluorescent protein (400 ng) were cotransfected into cells using Lipofectamine 2000 (Invitrogen) in accordance with the manufacturer's instructions. Cells were seeded onto poly‐d‐lysine (PDL)‐coated glass coverslips 1 h prior to electrophysiological recordings. All cells were cultured under standard conditions of 5% CO2 at 37 °C.
Whole‐cell patch‐clamp recordings were obtained either in transiently transfected CHO‐K1 cells or in primary cultured astrocytes at room temperature using standard patch‐clamp techniques with an Axopatch‐700B amplifier (Axon Instruments). The signals were filtered at 2 kHz and sampled at 20 kHz using the Digidata 1440A interface (Axon Instruments). The resistance of borosilicate glass pipettes was typically 2–4 MΩ when filled with the internal solution. Drug application was facilitated using a BPS perfusion system (ALA Scientific Instruments). Macroscopic currents generated by expressed potassium channels were recorded under the voltage‐clamp conditions with an internal pipette solution composed of (in mM): 140 KCl, 5 NaCl, 1 CaCl2, 1 MgCl2, 10 HEPES, and 10 EGTA, pH 7.2 adjusted with KOH. The external solution contained (in mM): 140 NaCl, 5 KCl, 2 CaCl2, 1 MgCl2, 10 glucose, and 10 HEPES, pH 7.4 adjusted with NaOH. Currents were elicited with a hyperpolarized voltage at −120 mV from the holding potential of −80 mV, followed by a ramp voltage depolarizing to +50 mV. Astrocytic resting membrane potentials were recorded under current‐clamp conditions (I = 0 pA) using standard internal and external solutions, determined immediately after achieving whole‐cell mode.

[1] = test system: MDA-MB-468 breast cancer cells; assay: Cytotoxicity test (CCK-8); assay type: cell-based; settings: read-out: IC50 ± SD (μM) for MDA-MB-468 Inhibition
Protocol: Cytotoxicity of all the tested compounds was determined using the cell counting kit‐8 (CCK‐8) assay kit (Beyotime, Shanghai, China). Briefly, MDA‐MB‐468 was cultured in L15 medium and plated in 96‐well plates at a density of 12,000 cells per well for 24 h at 37 °C in a 5% CO2 incubator. The tested compounds were dissolved in DMSO and diluted with culture medium (DMSO final concentration < 0.4%). Then the cells were treated with compounds (0.41, 1.23, 3.70, 11.11, 33.33, 100.00 µM) for 48 h. After treatments, removal of the supernatant liquor, 100 µL of new media diluted CCK‐8 solution (10% CCK‐8) was added into each well and incubated at 37 °C for 2 h. The absorbance of the mixture was directly measured at 450 nm. The results are presented as a percentage of the control.

[2] = +50 mV, read-out: Kir4.1 Inhibition ± SD (%) at 10 μM, +50 mV
[3] = -120 mV, read-out: Kir4.1 Inhibition ± SD (%) at 10 μM, -120 mV
[4] = Homo sapiens, MDA-MB-468, MDA-MB-468 breast cancer cells
[5] = +50 mV, read-out: Kir4.1 Inhibition ± SD (%) at 1 μM, +50 mV
[6] = -120 mV, read-out: Kir4.1 Inhibition ± SD (%) at 1 μM, -120 mV
[7] = +50 mV, read-out: Kir4.1 Inhibition ± SD (%) at 0.5 μM, +50 mV
[8] = -120 mV, read-out: Kir4.1 Inhibition ± SD (%) at 0.5 μM, -120 mV

inhibition at 10 µM (Kir4.1; [2]) [%]	inhibition at 10 µM (Kir4.1; [3]) [%]	inhibition at 1 µM (Kir4.1; [5]) [%]	inhibition at 1 µM (Kir4.1; [6]) [%]	inhibition at 0.5 µM (Kir4.1; [7]) [%]	inhibition at 0.5 µM (Kir4.1; [8]) [%]	Kir4.1 Inhibition ± SD (%) at 10 μM, +50 mV (Kir4.1; 10 μM, +50 mV, 10 µM) [%]	Kir4.1 Inhibition ± SD (%) at 10 μM, -120 mV (Kir4.1; 10 μM, -120 mV) [%]	Structure (SMILES)	IC50 [1, 4] [µM]	IC50 ([1]; MDA-MB-468 breast cancer cells) [µM]
1.43 ± 3.1	2.21 ± 9.84							O=c1c2ccccc2[nH]c2ccc(Nc3ccnc(NCCCN4CCOCC4)n3)cc12 [JX3208, 2-((2-((3-morpholinopropyl)amino)pyrimidin-4-yl)amino)acridin-9(10H)-one]	16.8 ± 0.51	
38.4 ± 5.37	25.9 ± 1.96							c1cc(Nc2ccc3[nH]ccc3c2)nc(NCCCN2CCOCC2)n1 [JX3206, N^4-(1H-indol-5-yl)-N^2-(3-morpholinopropyl)pyrimidine-2,4-diamine]	> 50	
86.8 ± 1.76	74.3 ± 4.51	1.15 ± 2.32	3.97 ± 2.03					COc1cnc(NCCCN2CCOCC2)nc1Nc1ccc2oc3ccccc3c2c1 [JX3218, N^4-(dibenzo[b,d]furan-2-yl)-5-methoxy-N^2-(3-morpholinopropyl)pyrimidine-2,4-diamine]	13.3 ± 0.3	
73 ± 3.72	17.1 ± 6.3	18.4 ± 3.79	0.88 ± 2.32					c1ccc2c(c1)oc1ccc(NC3CC4(CCN(CCCN5CCOCC5)CC4)C3)cc12 [JX3228, N-(dibenzo[b,d]furan-2-yl)-7-(3-morpholinopropyl)-7-azaspiro[3.5]nonan-2-amine]	11.2 ± 0.74	
11.9 ± 10.1	7.77 ± 6.65							Fc1cnc(NCCCN2CCOCC2)nc1Nc1ccc2oc3ccccc3c2c1 [JX3217, N^4-(dibenzo[b,d]furan-2-yl)-5-fluoro-N^2-(3-morpholinopropyl)pyrimidine-2,4-diamine]	> 50	
79.1 ± 3.7	65.1 ± 4.67	55 ± 3.87	41.2 ± 4.03					c1ccc2c3c([nH]c2c1)CCC(Nc1ccnc(NCCCN2CCOCC2)n1)C3 (centres unmarked) [JX3213, N^2-(3-morpholinopropyl)-N^4-(2,3,4,9-tetrahydro-1H-carbazol-3-yl)pyrimidine-2,4-diamine]	17.7 ± 3.05	
89.24 ± 0.5	70.8 ± 2.5	5 ± 5.21	-4.25 ± 7.82					O=C(NCCNc1nccc(Nc2ccc3oc4ccccc4c3c2)n1)N1CCOCC1 [JX3236, N-(2-((4-(dibenzo[b,d]furan-2-ylamino)pyrimidin-2-yl)amino)ethyl)morpholine-4-carboxamide]	21.9 ± 1.01	
6.08 ± 3.06	2.79 ± 2.22							c1cc(NC2CCCCC2)nc(NCCCN2CCOCC2)n1 [JX3202, N^4-cyclohexyl-N^2-(3-morpholinopropyl)pyrimidine-2,4-diamine]	21.1 ± 2.08	
36.5 ± 10.2	8.88 ± 10.2							c1ccc2cc(Nc3ccnc(NCCCN4CCOCC4)n3)ccc2c1 [JX3205, N^2-(3-morpholinopropyl)-N^4-(naphthalen-2-yl)pyrimidine-2,4-diamine]	16.9 ± 1.65	
87.3 ± 6.4	71.1 ± 6.03	5.55 ± 2.74	-0.94 ± 6.65					c1ccc2c(c1)oc1ccc(Nc3cc(NCCCN4CCOCC4)ncn3)cc12 [JX3222, N^4-(dibenzo[b,d]furan-2-yl)-N^6-(3-morpholinopropyl)pyrimidine-4,6-diamine]	44 ± 1.48	
96.3 ± 1.23	90.5 ± 2.35	7.39 ± 3.45	4.14 ± 5.52					c1ccc2c(c1)oc1ccc(Nc3ccnc(OCCCN4CCOCC4)n3)cc12 [JX3231, N-(dibenzo[b,d]furan-2-yl)-2-(3-morpholinopropoxy)pyrimidin-4-amine]	19.7 ± 0.5	
97.44 ± 0.6	92.6 ± 5.66	86.1 ± 3.36	78.7 ± 8.16	49.6 ± 6.47	40.2 ± 4.35			c1ccc2c(c1)oc1ccc(Nc3ccnc(NCCCN4CCOCC4)c3)cc12 [JX3219, N^4-(dibenzo[b,d]furan-2-yl)-N^2-(3-morpholinopropyl)pyridine-2,4-diamine]	8.74 ± 0.36	
96.9 ± 1.28	94.3 ± 2.6	3.73 ± 5.09	8.36 ± 3.94					c1ccc2c(c1)oc1ccc(Nc3cnc(NCCCN4CCOCC4)cn3)cc12 [JX3225, N^2-(dibenzo[b,d]furan-2-yl)-N^5-(3-morpholinopropyl)pyrazine-2,5-diamine]	31.6 ± 5.27	
91.3 ± 3.5	89.5 ± 2.33	73 ± 5.77	55.4 ± 3.73					COC1CCN(CCCNc2nccc(Nc3ccc4oc5ccccc5c4c3)n2)CC1 [JX3246, N^4-(dibenzo[b,d]furan-2-yl)-N^2-(3-(4-methoxypiperidin-1-yl)propyl)pyrimidine-2,4-diamine]	9.97 ± 0.62	
		29.1 ± 11.8	11.3 ± 5.07			96.66 ± 1.05	87.90 ± 2.73	c1ccc2c(c1)oc1ccc(Nc3cncc(NCCCN4CCOCC4)n3)cc12 [JX3224, N^2-(dibenzo[b,d]furan-2-yl)-N^6-(3-morpholinopropyl)pyrazine-2,6-diamine]		21.6 ± 0.8
97.5 ± 1.92	94.2 ± 1.77	-0.93 ± 7.76	-3.38 ± 9.3					C[C@@H]1CN(CCCNc2nccc(Nc3ccc4oc5ccccc5c4c3)n2)C[C@H](C)O1 [JX3242, N^4-(dibenzo[b,d]furan-2-yl)-N^2-(3-((2S,6R)-2,6-dimethylmorpholino)propyl)pyrimidine-2,4-diamine]	5.38 ± 0.11	
97.75 ± 0.84	94.2 ± 2.26	80.4 ± 8.36	66.6 ± 2.75					CC1CC(C)CN(CCCNc2nccc(Nc3ccc4oc5ccccc5c4c3)n2)C1 (centres unmarked) [JX3247, N^4-(dibenzo[b,d]furan-2-yl)-N^2-(3-(3,5-dimethylpiperidin-1-yl)propyl)pyrimidine-2,4-diamine]	6.03 ± 0.24	
97.02 ± 0.67	92 ± 1.98	16.8 ± 8.93	9.55 ± 3.62					Cc1cnc(NCCCN2CCOCC2)nc1Nc1ccc2oc3ccccc3c2c1 [JX3216, N^4-(dibenzo[b,d]furan-2-yl)-5-methyl-N^2-(3-morpholinopropyl)pyrimidine-2,4-diamine]	17.9 ± 0.65	
26.8 ± 9.64	4.9 ± 7.34							c1ccc2c(c1)oc1ccc(N3CCC4(CC3)CN(CCCN3CCOCC3)C4)cc12 [JX3229, 4-(3-(7-(dibenzo[b,d]furan-2-yl)-2,7-diazaspiro[3.5]nonan-2-yl)propyl)morpholine]	29.5 ± 1.09	
95.83 ± 0.42	89.8 ± 1.62	79.3 ± 3.86	71 ± 2.19	39.5 ± 5.16	30.3 ± 5.33			c1ccc2c(c1)ccc1[nH]c3ccc(Nc4ccnc(NCCCN5CCOCC5)n4)cc3c12 [JX3215, N^4-(7H-benzo[c]carbazol-10-yl)-N^2-(3-morpholinopropyl)pyrimidine-2,4-diamine]	6.72 ± 0.28	

Source: paper PMC12903969, “Discovery of a Novel and Potent Kir4.1 Inhibitor as a Safe and Rapid‐Onset Antidepressant Agent in Mice” (Advanced Science, 2025)
